According to the supplement of paper PMC8882468:

Test system: HCI-001 (organoid from a triple-negative breast cancer xenograft)
Assay: CTG-3D luminescence at 96 h relative to day-0 seeding control (ratio to day 0); higher = more growth / less cytotoxicity; PDxO 3D drug screen, 96 h, CTG-3D normalised to day-0 seeding control.
Details: 1 µM; days in culture: 364

Structure (SMILES)	CTG-3D luminescence at 96 h
CN(Cc1cnc2nc(N)nc(N)c2n1)c1ccc(C(=O)N[C@@H](CCC(=O)O)C(=O)O)cc1 [methotrexate]	0.633
C=CCn1c(=O)c2cnc(Nc3ccc(N4CCN(C)CC4)cc3)nc2n1-c1cccc(C(C)(C)O)n1 [adavosertib]	0.983
CC(C)(C(=O)NCC(F)(F)C(F)(F)F)C(=O)N[C@@H]1C(=O)Nc2ccccc2-c2ccccc21	1.14
C[C@@H]1COCCN1c1cc(C2([S@](C)(=N)=O)CC2)nc(-c2cc[nH]c3nccc2-3)n1 [ceralasertib]	0.732
CCN1CCN(Cc2ccc(Nc3ncc(F)c(-c4cc(F)c5nc(C)n(C(C)C)c5c4)n3)nc2)CC1 [abemaciclib]	0.909

Same assay, conditions: 10 µM; days in culture: 240

Structure (SMILES)	CTG-3D luminescence at 96 h
COc1cccc2c1C(=O)c1c(O)c3c(c(O)c1C2=O)C[C@@](O)(C(=O)CO)C[C@@H]3O[C@H]1C[C@H](N)[C@H](O)[C@H](C)O1 [doxorubicin]	0.102
O=C(O)C1(C(=O)O)CCC1.[NH2-].[NH2-].[Pt+2] [carboplatin]	1.29
NC(=O)Nc1cc(-c2cccc(F)c2)sc1C(=O)N[C@H]1CCCNC1 [AZD7762]	0.189
Nc1ccn([C@@H]2O[C@H](CO)[C@@H](O)C2(F)F)c(=O)n1 [gemcitabine]	0.454
CC1(C)CCC(c2ccc(Cl)cc2)=C(CN2CCN(c3ccc(C(=O)NS(=O)(=O)c4ccc(N[C@H](CCN5CCOCC5)CSc5ccccc5)c(S(=O)(=O)C(F)(F)F)c4)cc3)CC2)C1 [navitoclax]	0.369
CN(Cc1cnc2nc(N)nc(N)c2n1)c1ccc(C(=O)N[C@@H](CCC(=O)O)C(=O)O)cc1 [methotrexate]	1.06
C=CCn1c(=O)c2cnc(Nc3ccc(N4CCN(C)CC4)cc3)nc2n1-c1cccc(C(C)(C)O)n1 [adavosertib]	0.244
CC(C)(C(=O)NCC(F)(F)C(F)(F)F)C(=O)N[C@@H]1C(=O)Nc2ccccc2-c2ccccc21	0.943
C[C@@H]1COCCN1c1cc(C2([S@](C)(=N)=O)CC2)nc(-c2cc[nH]c3nccc2-3)n1 [ceralasertib]	0.512
CCN1CCN(Cc2ccc(Nc3ncc(F)c(-c4cc(F)c5nc(C)n(C(C)C)c5c4)n3)nc2)CC1 [abemaciclib]	0.799

Same assay, conditions: 10 µM; days in culture: 260

Structure (SMILES)	CTG-3D luminescence at 96 h
COc1cccc2c1C(=O)c1c(O)c3c(c(O)c1C2=O)C[C@@](O)(C(=O)CO)C[C@@H]3O[C@H]1C[C@H](N)[C@H](O)[C@H](C)O1 [doxorubicin]	0.169
O=C(O)C1(C(=O)O)CCC1.[NH2-].[NH2-].[Pt+2] [carboplatin]	1.48
NC(=O)Nc1cc(-c2cccc(F)c2)sc1C(=O)N[C@H]1CCCNC1 [AZD7762]	0.243
Nc1ccn([C@@H]2O[C@H](CO)[C@@H](O)C2(F)F)c(=O)n1 [gemcitabine]	0.522
CC1(C)CCC(c2ccc(Cl)cc2)=C(CN2CCN(c3ccc(C(=O)NS(=O)(=O)c4ccc(N[C@H](CCN5CCOCC5)CSc5ccccc5)c(S(=O)(=O)C(F)(F)F)c4)cc3)CC2)C1 [navitoclax]	0.642
CN(Cc1cnc2nc(N)nc(N)c2n1)c1ccc(C(=O)N[C@@H](CCC(=O)O)C(=O)O)cc1 [methotrexate]	1.62
C=CCn1c(=O)c2cnc(Nc3ccc(N4CCN(C)CC4)cc3)nc2n1-c1cccc(C(C)(C)O)n1 [adavosertib]	0.27
CC(C)(C(=O)NCC(F)(F)C(F)(F)F)C(=O)N[C@@H]1C(=O)Nc2ccccc2-c2ccccc21	1.29
C[C@@H]1COCCN1c1cc(C2([S@](C)(=N)=O)CC2)nc(-c2cc[nH]c3nccc2-3)n1 [ceralasertib]	0.492
CCN1CCN(Cc2ccc(Nc3ncc(F)c(-c4cc(F)c5nc(C)n(C(C)C)c5c4)n3)nc2)CC1 [abemaciclib]	1.23

Same assay, conditions: 10 µM; days in culture: 269

Structure (SMILES)	CTG-3D luminescence at 96 h
COc1cccc2c1C(=O)c1c(O)c3c(c(O)c1C2=O)C[C@@](O)(C(=O)CO)C[C@@H]3O[C@H]1C[C@H](N)[C@H](O)[C@H](C)O1 [doxorubicin]	0.0884
O=C(O)C1(C(=O)O)CCC1.[NH2-].[NH2-].[Pt+2] [carboplatin]	2.14
NC(=O)Nc1cc(-c2cccc(F)c2)sc1C(=O)N[C@H]1CCCNC1 [AZD7762]	0.388
Nc1ccn([C@@H]2O[C@H](CO)[C@@H](O)C2(F)F)c(=O)n1 [gemcitabine]	0.735
CC1(C)CCC(c2ccc(Cl)cc2)=C(CN2CCN(c3ccc(C(=O)NS(=O)(=O)c4ccc(N[C@H](CCN5CCOCC5)CSc5ccccc5)c(S(=O)(=O)C(F)(F)F)c4)cc3)CC2)C1 [navitoclax]	0.889
CN(Cc1cnc2nc(N)nc(N)c2n1)c1ccc(C(=O)N[C@@H](CCC(=O)O)C(=O)O)cc1 [methotrexate]	2.16
C=CCn1c(=O)c2cnc(Nc3ccc(N4CCN(C)CC4)cc3)nc2n1-c1cccc(C(C)(C)O)n1 [adavosertib]	0.254
CC(C)(C(=O)NCC(F)(F)C(F)(F)F)C(=O)N[C@@H]1C(=O)Nc2ccccc2-c2ccccc21	2.38
C[C@@H]1COCCN1c1cc(C2([S@](C)(=N)=O)CC2)nc(-c2cc[nH]c3nccc2-3)n1 [ceralasertib]	0.544
CCN1CCN(Cc2ccc(Nc3ncc(F)c(-c4cc(F)c5nc(C)n(C(C)C)c5c4)n3)nc2)CC1 [abemaciclib]	0.68

Same assay, conditions: 10 µM; days in culture: 327

Structure (SMILES)	CTG-3D luminescence at 96 h
COc1cccc2c1C(=O)c1c(O)c3c(c(O)c1C2=O)C[C@@](O)(C(=O)CO)C[C@@H]3O[C@H]1C[C@H](N)[C@H](O)[C@H](C)O1 [doxorubicin]	0.146
O=C(O)C1(C(=O)O)CCC1.[NH2-].[NH2-].[Pt+2] [carboplatin]	1.15
NC(=O)Nc1cc(-c2cccc(F)c2)sc1C(=O)N[C@H]1CCCNC1 [AZD7762]	0.168
Nc1ccn([C@@H]2O[C@H](CO)[C@@H](O)C2(F)F)c(=O)n1 [gemcitabine]	0.37
CC1(C)CCC(c2ccc(Cl)cc2)=C(CN2CCN(c3ccc(C(=O)NS(=O)(=O)c4ccc(N[C@H](CCN5CCOCC5)CSc5ccccc5)c(S(=O)(=O)C(F)(F)F)c4)cc3)CC2)C1 [navitoclax]	0.0556
CN(Cc1cnc2nc(N)nc(N)c2n1)c1ccc(C(=O)N[C@@H](CCC(=O)O)C(=O)O)cc1 [methotrexate]	0.985
C=CCn1c(=O)c2cnc(Nc3ccc(N4CCN(C)CC4)cc3)nc2n1-c1cccc(C(C)(C)O)n1 [adavosertib]	0.193
CC(C)(C(=O)NCC(F)(F)C(F)(F)F)C(=O)N[C@@H]1C(=O)Nc2ccccc2-c2ccccc21	1.04
C[C@@H]1COCCN1c1cc(C2([S@](C)(=N)=O)CC2)nc(-c2cc[nH]c3nccc2-3)n1 [ceralasertib]	0.335
CCN1CCN(Cc2ccc(Nc3ncc(F)c(-c4cc(F)c5nc(C)n(C(C)C)c5c4)n3)nc2)CC1 [abemaciclib]	1.12

Same assay, conditions: 10 µM; days in culture: 346

Structure (SMILES)	CTG-3D luminescence at 96 h
COc1cccc2c1C(=O)c1c(O)c3c(c(O)c1C2=O)C[C@@](O)(C(=O)CO)C[C@@H]3O[C@H]1C[C@H](N)[C@H](O)[C@H](C)O1 [doxorubicin]	0.141
O=C(O)C1(C(=O)O)CCC1.[NH2-].[NH2-].[Pt+2] [carboplatin]	1.47
NC(=O)Nc1cc(-c2cccc(F)c2)sc1C(=O)N[C@H]1CCCNC1 [AZD7762]	0.184
Nc1ccn([C@@H]2O[C@H](CO)[C@@H](O)C2(F)F)c(=O)n1 [gemcitabine]	0.5
CC1(C)CCC(c2ccc(Cl)cc2)=C(CN2CCN(c3ccc(C(=O)NS(=O)(=O)c4ccc(N[C@H](CCN5CCOCC5)CSc5ccccc5)c(S(=O)(=O)C(F)(F)F)c4)cc3)CC2)C1 [navitoclax]	0.577
CN(Cc1cnc2nc(N)nc(N)c2n1)c1ccc(C(=O)N[C@@H](CCC(=O)O)C(=O)O)cc1 [methotrexate]	1.41
C=CCn1c(=O)c2cnc(Nc3ccc(N4CCN(C)CC4)cc3)nc2n1-c1cccc(C(C)(C)O)n1 [adavosertib]	0.163
CC(C)(C(=O)NCC(F)(F)C(F)(F)F)C(=O)N[C@@H]1C(=O)Nc2ccccc2-c2ccccc21	1.31
C[C@@H]1COCCN1c1cc(C2([S@](C)(=N)=O)CC2)nc(-c2cc[nH]c3nccc2-3)n1 [ceralasertib]	0.456
CCN1CCN(Cc2ccc(Nc3ncc(F)c(-c4cc(F)c5nc(C)n(C(C)C)c5c4)n3)nc2)CC1 [abemaciclib]	1.35

Same assay, conditions: 10 µM; days in culture: 364

Structure (SMILES)	CTG-3D luminescence at 96 h
COc1cccc2c1C(=O)c1c(O)c3c(c(O)c1C2=O)C[C@@](O)(C(=O)CO)C[C@@H]3O[C@H]1C[C@H](N)[C@H](O)[C@H](C)O1 [doxorubicin]	0.116
O=C(O)C1(C(=O)O)CCC1.[NH2-].[NH2-].[Pt+2] [carboplatin]	1.56
NC(=O)Nc1cc(-c2cccc(F)c2)sc1C(=O)N[C@H]1CCCNC1 [AZD7762]	0.201
Nc1ccn([C@@H]2O[C@H](CO)[C@@H](O)C2(F)F)c(=O)n1 [gemcitabine]	0.332
CC1(C)CCC(c2ccc(Cl)cc2)=C(CN2CCN(c3ccc(C(=O)NS(=O)(=O)c4ccc(N[C@H](CCN5CCOCC5)CSc5ccccc5)c(S(=O)(=O)C(F)(F)F)c4)cc3)CC2)C1 [navitoclax]	0.802
CN(Cc1cnc2nc(N)nc(N)c2n1)c1ccc(C(=O)N[C@@H](CCC(=O)O)C(=O)O)cc1 [methotrexate]	1.11
C=CCn1c(=O)c2cnc(Nc3ccc(N4CCN(C)CC4)cc3)nc2n1-c1cccc(C(C)(C)O)n1 [adavosertib]	0.13
CC(C)(C(=O)NCC(F)(F)C(F)(F)F)C(=O)N[C@@H]1C(=O)Nc2ccccc2-c2ccccc21	1.29
C[C@@H]1COCCN1c1cc(C2([S@](C)(=N)=O)CC2)nc(-c2cc[nH]c3nccc2-3)n1 [ceralasertib]	0.301
CCN1CCN(Cc2ccc(Nc3ncc(F)c(-c4cc(F)c5nc(C)n(C(C)C)c5c4)n3)nc2)CC1 [abemaciclib]	1.22

Same assay, conditions: 100 µM; days in culture: 240

Structure (SMILES)	CTG-3D luminescence at 96 h
COc1cccc2c1C(=O)c1c(O)c3c(c(O)c1C2=O)C[C@@](O)(C(=O)CO)C[C@@H]3O[C@H]1C[C@H](N)[C@H](O)[C@H](C)O1 [doxorubicin]	0.0662
O=C(O)C1(C(=O)O)CCC1.[NH2-].[NH2-].[Pt+2] [carboplatin]	0.471
NC(=O)Nc1cc(-c2cccc(F)c2)sc1C(=O)N[C@H]1CCCNC1 [AZD7762]	0.00603
Nc1ccn([C@@H]2O[C@H](CO)[C@@H](O)C2(F)F)c(=O)n1 [gemcitabine]	0.527
CC1(C)CCC(c2ccc(Cl)cc2)=C(CN2CCN(c3ccc(C(=O)NS(=O)(=O)c4ccc(N[C@H](CCN5CCOCC5)CSc5ccccc5)c(S(=O)(=O)C(F)(F)F)c4)cc3)CC2)C1 [navitoclax]	0.0412
CN(Cc1cnc2nc(N)nc(N)c2n1)c1ccc(C(=O)N[C@@H](CCC(=O)O)C(=O)O)cc1 [methotrexate]	1.21
C=CCn1c(=O)c2cnc(Nc3ccc(N4CCN(C)CC4)cc3)nc2n1-c1cccc(C(C)(C)O)n1 [adavosertib]	0.152
CC(C)(C(=O)NCC(F)(F)C(F)(F)F)C(=O)N[C@@H]1C(=O)Nc2ccccc2-c2ccccc21	1.23
C[C@@H]1COCCN1c1cc(C2([S@](C)(=N)=O)CC2)nc(-c2cc[nH]c3nccc2-3)n1 [ceralasertib]	0.536
CCN1CCN(Cc2ccc(Nc3ncc(F)c(-c4cc(F)c5nc(C)n(C(C)C)c5c4)n3)nc2)CC1 [abemaciclib]	0.012
